{"source": "patent US11000033B2", "about": "“Ketone or oxime compound, and herbicide” (NISSAN CHEMICAL CORPORATION, priority 2014, dated 2021)", "type_in_all_cases": "in vivo", "key": {"[1]": {"system": "Echinochloa crus-galli var. crus-galli", "experiment": "Test Example 3: herbicidal effect by foliage application, Wagner pot (symbol H)", "conditions": "for H (Echinochloa crus-galli var. crus-galli) herbicidal effect grade: Table 24", "summary_of_the_method": "(§1)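 Seeds sown in alluvial soil kept under 0.1–0.5 cm water, greenhouse 25–30 °C; 14 d growth. Leaves treated by small sprayer with water-diluted emulsion at a predetermined rate. Effect graded by set scale, 3 weeks.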"}, "Monochoria vaginalis [2]": {"system": "Monochoria vaginalis", "experiment": "Test Example 2: herbicidal activity, application during weed generation in submerged conditions (symbol C)", "conditions": "Table 23, grade 0-5 by criteria of Test Example 1", "summary_of_the_method": "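Each pot contained alluvial soil under 4 cm of water with seeds of all three weeds sown together. Following growth at 25° C. to 30° C. to the one- to two-leaf stage, the floodwater received diluted emulsion at a predetermined amount; visual assessment followed at 3 weeks.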"}, "corn": {"system": "corn", "experiment": "Test Example 5: effect on crop by foliage application, plastic box (symbol c)", "conditions": "3 weeks after application; for c: corn, effect on crop grade: 320 g/ha", "summary_of_the_method": "(§2)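 A greenhouse held between 25° C. and 30° C. was used to grow plants sown spot-wise, beneath ~1.5 cm of soil, in boxes of sterilized diluvial soil.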"}, "soybean": {"system": "soybean", "experiment": "Test Example 5: effect on crop by foliage application, plastic box (symbol d)", "conditions": "3 weeks after application; for d: soybean, effect on crop grade: 320 g/ha", "summary_of_the_method": "as §2"}, "Abutilon theophrasti": {"system": "Abutilon theophrasti", "experiment": "Test Example 4: herbicidal effect by soil treatment (symbol M)", "description": "(§3) Herbicidal Effect Test by Soil Treatment\n(§4) Sterilized diluvial soil was placed in a plastic box having a length of 21 cm, a width of 13 cm, and a depth of 7 cm. Each of the seeds of Digitaria ciliaris, Setaria viridis, Echinochloa crus-galli var. crus-galli, Avena fatua, Alopecurus myosuroides, Lolium multiflorum Lam., Apera spica-venti, Abutilon theophrasti, Amaranthus retroflexus, Chenopodium album, Stellaria media, Galium spurium, Veronica persica, corn, soybean, rice, wheat, beet, and rapeseed was sowed in a spot-like manner and was covered with the soil of a thickness of about 1.5 cm. Subsequently, the emulsion agent of the compound present invention prepared in accordance with Formulation Example 2 was diluted with water so as to be a predetermined herbicide amount and the diluted emulsion agent was uniformly applied to the surface of the soil with a small-size spray. The plastic box was placed in a greenhouse of 25° C. to 30° C. to grow plant. 3 weeks later from the herbicide application, the effect to each plant was investigated in accordance with the criteria of Test Example 1."}, "Avena fatua": {"system": "Avena fatua", "experiment": "Test Example 4: herbicidal effect by soil treatment (symbol I)", "description": "as §3, §4"}, "Monochoria vaginalis [3]": {"system": "Monochoria vaginalis", "experiment": "Test Example 1: herbicidal activity, application before weed generation in submerged conditions (symbol C)", "summary_of_the_method": "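Application before weed emergence: an aqueous dilution of the emulsion formulation was poured onto the surface of 4 cm-deep floodwater on the day of sowing. Effect was judged after 3 weeks (greenhouse, 25–30 °C).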"}, "Lolium multiflorum Lam.": {"system": "Lolium multiflorum Lam.", "experiment": "Test Example 5: herbicidal effect by foliage application, plastic box (symbol K)", "conditions": "3 weeks after application; for K: Lolium multiflorum Lam., herbicidal effect grade: 320 g/ha", "summary_of_the_method": "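Post-emergence spray; diluvial soil (sterilized), ~1.5 cm seed cover; greenhouse 25–30° C; 14-day-old plants; water-diluted emulsion at predetermined dose; visual score at 3 wk post-treatment.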"}, "Leptochloa chinensis": {"system": "Leptochloa chinensis", "experiment": "Test Example 3: herbicidal effect by foliage application, Wagner pot (symbol D)", "conditions": "for D (Leptochloa chinensis) herbicidal effect grade: Table 24", "summary_of_the_method": "as §1"}, "rapeseed": {"system": "rapeseed", "experiment": "Test Example 5: effect on crop by foliage application, plastic box (symbol g)", "conditions": "3 weeks after application; for g: rapeseed, effect on crop grade: 320 g/ha", "summary_of_the_method": "as §2"}, "[4]": {"conditions": "application herbicide amount 320 g/ha"}, "[5]": {"conditions": "application herbicide amount 192 g/ha"}}, "data": [{"smiles": "CON=C(CC1CC(O)=C(c2c(C)cc(C)cc2OC)C1=O)C1CC1", "note": "(mixture of isomers) [13-002]", "values": [{"measurement": "H (Echinochloa crus-galli var. crus-galli) herbicidal effect grade", "setting": "[1]; [4]", "value": "5 (Herbicidal ratio of 90% or more (almost completely withered))"}, {"measurement": "Herbicidal effect grade, C: Monochoria vaginalis", "setting": "Monochoria vaginalis [2]; [4]", "value": "2 (Herbicidal ratio of 20% or higher and lower than 40%)"}, {"measurement": "c: corn, effect on crop grade", "setting": "corn", "value": "5 (Herbicidal ratio of 90% or more (almost completely withered))"}, {"measurement": "d: soybean, effect on crop grade", "setting": "soybean", "value": "2 (Herbicidal ratio of 20% or higher and lower than 40%)"}, {"measurement": "M: Abutilon theophrasti, herbicidal effect grade", "setting": "Abutilon theophrasti; [4]", "value": "0 (Herbicidal ratio of 5% or lower (almost no effect))"}, {"measurement": "I: Avena fatua, herbicidal effect grade", "setting": "Avena fatua; [4]", "value": "4 (Herbicidal ratio of 70% or higher and lower than 90%)"}, {"measurement": "C (Monochoria vaginalis) herbicidal effect grade", "setting": "Monochoria vaginalis [3]; [4]", "value": "0 (Herbicidal ratio of 5% or lower (almost no effect))"}, {"measurement": "K: Lolium multiflorum Lam., herbicidal effect grade", "setting": "Lolium multiflorum Lam.", "value": "5 (Herbicidal ratio of 90% or more (almost completely withered))"}, {"measurement": "D (Leptochloa chinensis) herbicidal effect grade", "setting": "Leptochloa chinensis; [4]", "value": "5 (Herbicidal ratio of 90% or more (almost completely withered))"}, {"measurement": "g: rapeseed, effect on crop grade", "setting": "rapeseed", "value": "4 (Herbicidal ratio of 70% or higher and lower than 90%)"}]}, {"smiles": "CON=C(CC1CC(OC(=O)C(C)(C)C)=C(c2c(C)cc(C)cc2OC)C1=O)C1CC1", "note": "(mixture of isomers) [13-006]", "values": [{"measurement": "H (Echinochloa crus-galli var. crus-galli) herbicidal effect grade", "setting": "[1]; [4]", "value": "5 (Herbicidal ratio of 90% or more (almost completely withered))"}, {"measurement": "Herbicidal effect grade, C: Monochoria vaginalis", "setting": "Monochoria vaginalis [2]; [4]", "value": "4 (Herbicidal ratio of 70% or higher and lower than 90%)"}, {"measurement": "c: corn, effect on crop grade", "setting": "corn", "value": "5 (Herbicidal ratio of 90% or more (almost completely withered))"}, {"measurement": "d: soybean, effect on crop grade", "setting": "soybean", "value": "2 (Herbicidal ratio of 20% or higher and lower than 40%)"}, {"measurement": "M: Abutilon theophrasti, herbicidal effect grade", "setting": "Abutilon theophrasti; [4]", "value": "5 (Herbicidal ratio of 90% or more (almost completely withered))"}, {"measurement": "I: Avena fatua, herbicidal effect grade", "setting": "Avena fatua; [4]", "value": "0 (Herbicidal ratio of 5% or lower (almost no effect))"}, {"measurement": "C (Monochoria vaginalis) herbicidal effect grade", "setting": "Monochoria vaginalis [3]; [4]", "value": "4 (Herbicidal ratio of 70% or higher and lower than 90%)"}, {"measurement": "K: Lolium multiflorum Lam., herbicidal effect grade", "setting": "Lolium multiflorum Lam.", "value": "5 (Herbicidal ratio of 90% or more (almost completely withered))"}, {"measurement": "D (Leptochloa chinensis) herbicidal effect grade", "setting": "Leptochloa chinensis; [4]", "value": "5 (Herbicidal ratio of 90% or more (almost completely withered))"}, {"measurement": "g: rapeseed, effect on crop grade", "setting": "rapeseed", "value": "4 (Herbicidal ratio of 70% or higher and lower than 90%)"}]}, {"smiles": "C=CCOC1=C(c2c(C)cc(C)cc2C)C(=O)C(CC(C)=NOC)C1", "note": "(stereo not shown) [1-007]", "values": [{"measurement": "herbicidal effect on H (Echinochloa crus-galli var. crus-galli), grade 0-5", "setting": "[1]; [4]", "value": "0 (Herbicidal ratio of 5% or lower (almost no effect))"}, {"measurement": "Herbicidal effect grade, C: Monochoria vaginalis", "setting": "Monochoria vaginalis [2]; [4]", "value": "0 (Herbicidal ratio of 5% or lower (almost no effect))"}, {"measurement": "c: corn, effect on crop grade", "setting": "corn", "value": "0 (Herbicidal ratio of 5% or lower (almost no effect))"}, {"measurement": "d: soybean, effect on crop grade", "setting": "soybean", "value": "0 (Herbicidal ratio of 5% or lower (almost no effect))"}, {"measurement": "M (Abutilon theophrasti) herbicidal effect grade", "setting": "Abutilon theophrasti; [4]", "value": "0 (Herbicidal ratio of 5% or lower (almost no effect))"}, {"measurement": "I (Avena fatua) herbicidal effect grade", "setting": "Avena fatua; [4]", "value": "0 (Herbicidal ratio of 5% or lower (almost no effect))"}, {"measurement": "Herbicidal effect grade, C: Monochoria vaginalis", "setting": "Monochoria vaginalis [3]; [4]", "value": "0 (Herbicidal ratio of 5% or lower (almost no effect))"}, {"measurement": "K: Lolium multiflorum Lam., herbicidal effect grade", "setting": "Lolium multiflorum Lam.", "value": "5 (Herbicidal ratio of 90% or more (almost completely withered))"}, {"measurement": "herbicidal effect on D (Leptochloa chinensis), grade 0-5", "setting": "Leptochloa chinensis; [4]", "value": "5 (Herbicidal ratio of 90% or more (almost completely withered))"}, {"measurement": "g: rapeseed, effect on crop grade", "setting": "rapeseed", "value": "0 (Herbicidal ratio of 5% or lower (almost no effect))"}]}, {"smiles": "CON=C(C)CC1CC(OC(=O)C2CCCO2)=C(c2c(C)cc(C)cc2C)C1=O", "note": "(stereo not shown) [1-076]", "values": [{"measurement": "herbicidal effect on H (Echinochloa crus-galli var. crus-galli), grade 0-5", "setting": "[1]; [5]", "value": "5 (Herbicidal ratio of 90% or more (almost completely withered))"}, {"measurement": "Herbicidal effect grade, C: Monochoria vaginalis", "setting": "Monochoria vaginalis [2]; [5]", "value": "0 (Herbicidal ratio of 5% or lower (almost no effect))"}, {"measurement": "c: corn, effect on crop (criteria 0-5)", "setting": "corn; 192 g/ha", "value": "4 (Herbicidal ratio of 70% or higher and lower than 90%)"}, {"measurement": "d: soybean, effect on crop (criteria 0-5)", "setting": "soybean; 192 g/ha", "value": "4 (Herbicidal ratio of 70% or higher and lower than 90%)"}, {"measurement": "M: Abutilon theophrasti, herbicidal effect grade", "setting": "Abutilon theophrasti; 192 g/ha", "value": "4 (Herbicidal ratio of 70% or higher and lower than 90%)"}, {"measurement": "I: Avena fatua, herbicidal effect grade", "setting": "Avena fatua; 192 g/ha", "value": "4 (Herbicidal ratio of 70% or higher and lower than 90%)"}, {"measurement": "Herbicidal effect grade, C: Monochoria vaginalis", "setting": "Monochoria vaginalis [3]; [5]", "value": "0 (Herbicidal ratio of 5% or lower (almost no effect))"}, {"measurement": "K: Lolium multiflorum Lam., herbicidal effect (criteria 0-5)", "setting": "Lolium multiflorum Lam.; 192 g/ha", "value": "5 (Herbicidal ratio of 90% or more (almost completely withered))"}, {"measurement": "herbicidal effect on D (Leptochloa chinensis), grade 0-5", "setting": "Leptochloa chinensis; [5]", "value": "5 (Herbicidal ratio of 90% or more (almost completely withered))"}, {"measurement": "g: rapeseed, effect on crop (criteria 0-5)", "setting": "rapeseed; 192 g/ha", "value": "4 (Herbicidal ratio of 70% or higher and lower than 90%)"}]}]}
